The numbers were not newly measured in US9511027B1, “Calcium supplement having enhanced absorption” (Delavau L.L.C., priority 2006, dated 2016), which cites them from elsewhere.

With `[Ca+2]` [calcium], the percent absorption (9 to 18 year olds, Wastney et al. 1996) is listed as 38%. The elemental calcium absorbed result (adults, basis of the AIs of 1,000 mg and 1,200 mg, Heaney et al. 1988) is “about 30%”.
